Laboratory results published in patent publication US20220372040A1, “METTL3 MODULATORS” (Accent Therapeutics, Inc., priority 2020, published 2022).
Where two headings read alike, the source gives them in different places.

What was measured:
MOLM-13 cells = experiment: MOLM-13 96 Hour cell proliferation assay (Cell Titer-Glo); assay type: cell-based; conditions: Homo sapiens
Description: MOLM-13 96 Hour Cell Proliferation Assay
MOLM-13 (DSMZ) cells were seeded at 600 cells per well in a volume of 44 μL in a Greiner Bio-One CELLSTAR™ 384 Well Polystyrene Cell Culture clear bottom microplate in RPMI 1640 media containing 10% fetal bovine serum using a Multidrop Combi (ThermoFisher Scientific). Cells were incubated overnight at 37° C. in a humidified tissue culture incubator. To prevent evaporation or to reduce edge effect, add 50 μL or more H2O to an empty plate, cover, and place on top of the cell plates. The Mosquito® HTS Liquid Handler was used to make a compound/media intermediate plate by aliquoting 1 μL of compound from the initial compound dilution plate (concentrations ranging from 10.0 mM to 38.0 nM in 100% DMSO) into Bio-One 384-well polypropylene conical bottom microplate containing 49 μL of media containing the appropriate serum (50-fold dilution, 2% DMSO, compound concentrations ranging from 200.0 μM and […]). The Apricot liquid handling system was used to transfer 6.2 μL compounds from the intermediate plate into the seeding plate containing 44 μL cells (8-fold dilution spanning concentrations 25.0 μM to […], 0.25% DMSO final), and placed in a humidified tissue culture incubator at 37° C. After 96 hours, 25 μL of Cell Titer-Glo reagent (Promega) was added to each well using an Integra liquid handling system. The plate was protected from light using TopSeal-A (Black) film over the entire plate, added White Bottom seal film on the bottom of the entire plate for a better reading on the Envision, and placed on an IKA plate shaker for at 300 rpm for 10 minutes at room temperature. The plate was read on an EnVision plate reader (Perkin Elmer) using the Ultra Sensitive Luminescence protocol. Data analysis was performed by normalizing the raw luminescence units to an average of the positive control values for staurosporine (100% cell death) and the negative control values for DMSO (0% cell death). An IC50 was calculated using a 4-parameter logistic nonlinear regression model in GraphPad Prism.

[1] = test system: m^6 A in cellular mRNA of MOLM-13 cells; experiment: m^6 A-mRNA LC-MS/MS assay (m^6 A cellular assay); assay type: cell-based; conditions: Homo sapiens, 24 hours incubation, LC-MS/MS of m^6 A/A in mRNA
Description: m^6 A-mRNA LC-MS/MS Assay
5×10^6 MOLM-13 (DSMZ) cells were seeded into 10 cm dishes in RPMI 1640 media containing 10% fetal bovine serum and placed in a humidified tissue culture incubator at 37° C. overnight. Compounds were resuspended in 100% DMSO and dosed into each dish at a fixed concentration to comprise an 8-point dose response with a 4-fold serial dilution ranging from 25 μM to 1.5 nM in 0.25% DMSO final and allowed to incubate for 24 hours in a humidified tissue culture incubator at 37° C. Cells were harvested by centrifugation followed by mRNA extraction using DTRECT Dynabeads mRNA DTRECT kit (Life Technologies). mRNA was quantified on NanoDrop spectrophotometer (Thermo Fisher Scientific) and digested into single nucleosides using Nucleoside Digestion Mix (New England Biolabs). Nucleosides are quantified with retention time on a BEH […] column (Waters) and the nucleoside-to-base ion mass transition of 282.1-150.1 (m^6 A) and 268-136 (A) on an API 6500+ triple quadrupole mass spectrometer. Quantification is performed in comparison with the standard curve, obtained from pure nucleoside standards (Selleck Chemicals) running with the same batch of samples. Percentage m^6 A in cellular mRNA is calculated as 100*(m^6 A/A).

METTL3/METTL14 = METTL3/METTL14 (Homo sapiens, UniProt Q86U44); experiment: METTL3-14 standard enzyme assay (3H-SAM flashplate scintillation); assay type: biochemical; conditions: METTL3/METTL14 2.5 nM, RNA 100 nM, 3H-SAM 100 nM, 30 min
METTL3/METTL14, sequence (Q86U44 whole entry, species assumed): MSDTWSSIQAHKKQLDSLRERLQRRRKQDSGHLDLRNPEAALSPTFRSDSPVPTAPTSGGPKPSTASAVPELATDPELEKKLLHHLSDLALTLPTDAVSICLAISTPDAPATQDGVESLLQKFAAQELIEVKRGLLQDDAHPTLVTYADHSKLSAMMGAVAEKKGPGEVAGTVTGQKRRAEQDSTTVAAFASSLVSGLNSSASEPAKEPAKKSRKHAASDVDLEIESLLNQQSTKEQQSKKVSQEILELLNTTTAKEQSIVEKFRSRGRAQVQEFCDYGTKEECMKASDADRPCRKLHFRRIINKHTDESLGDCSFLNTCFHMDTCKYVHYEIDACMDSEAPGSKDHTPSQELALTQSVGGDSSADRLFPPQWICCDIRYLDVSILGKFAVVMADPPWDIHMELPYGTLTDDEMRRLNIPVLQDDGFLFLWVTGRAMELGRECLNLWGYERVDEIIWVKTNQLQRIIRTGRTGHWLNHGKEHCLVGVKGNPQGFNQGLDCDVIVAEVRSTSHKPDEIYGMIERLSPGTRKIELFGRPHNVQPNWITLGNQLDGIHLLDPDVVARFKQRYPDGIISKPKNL
METTL3/METTL14, sequence (Q9HCE5 whole entry partner, species assumed): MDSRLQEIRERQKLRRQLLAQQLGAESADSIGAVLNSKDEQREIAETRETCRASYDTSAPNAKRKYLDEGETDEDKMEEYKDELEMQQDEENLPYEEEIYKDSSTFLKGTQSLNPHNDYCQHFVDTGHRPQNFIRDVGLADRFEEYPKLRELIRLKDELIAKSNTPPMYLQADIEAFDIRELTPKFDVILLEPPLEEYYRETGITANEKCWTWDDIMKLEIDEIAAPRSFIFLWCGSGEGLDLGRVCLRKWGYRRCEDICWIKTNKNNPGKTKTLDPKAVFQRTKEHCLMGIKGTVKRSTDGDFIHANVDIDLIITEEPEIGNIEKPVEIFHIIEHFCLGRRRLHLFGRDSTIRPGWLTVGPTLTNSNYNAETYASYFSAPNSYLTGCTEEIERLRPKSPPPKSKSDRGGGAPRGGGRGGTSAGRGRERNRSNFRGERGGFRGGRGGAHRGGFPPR
Outline: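 Radiometric methylation readout: biotinylated RNA substrate UCUGGACUAAA and 3H-SAM, each 100 nM final, reacted 30 min at ambient temperature with 2.5 nM enzyme complex after 5 min compound preincubation (HEPES pH 7.5 buffer, KCl, MgCl2, DTT). Excess unlabelled SAM (15 μM) stopped reactions before streptavidin flashplate capture.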

METTL1/WDR4 = METTL1/WDR4 (Homo sapiens, UniProt Q9UBP6); experiment: METTL1 assay (3H-SAM flashplate scintillation); assay type: biochemical
METTL1/WDR4, sequence (Q9UBP6 whole entry, species assumed): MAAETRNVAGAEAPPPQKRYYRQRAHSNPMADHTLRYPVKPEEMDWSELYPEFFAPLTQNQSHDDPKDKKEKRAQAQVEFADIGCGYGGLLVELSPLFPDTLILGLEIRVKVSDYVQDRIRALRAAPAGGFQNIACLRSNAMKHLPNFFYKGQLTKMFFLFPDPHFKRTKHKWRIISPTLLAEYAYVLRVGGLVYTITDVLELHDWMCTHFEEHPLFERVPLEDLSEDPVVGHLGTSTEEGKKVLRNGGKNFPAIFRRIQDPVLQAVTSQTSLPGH
METTL1/WDR4, sequence (P57081 whole entry partner, species assumed): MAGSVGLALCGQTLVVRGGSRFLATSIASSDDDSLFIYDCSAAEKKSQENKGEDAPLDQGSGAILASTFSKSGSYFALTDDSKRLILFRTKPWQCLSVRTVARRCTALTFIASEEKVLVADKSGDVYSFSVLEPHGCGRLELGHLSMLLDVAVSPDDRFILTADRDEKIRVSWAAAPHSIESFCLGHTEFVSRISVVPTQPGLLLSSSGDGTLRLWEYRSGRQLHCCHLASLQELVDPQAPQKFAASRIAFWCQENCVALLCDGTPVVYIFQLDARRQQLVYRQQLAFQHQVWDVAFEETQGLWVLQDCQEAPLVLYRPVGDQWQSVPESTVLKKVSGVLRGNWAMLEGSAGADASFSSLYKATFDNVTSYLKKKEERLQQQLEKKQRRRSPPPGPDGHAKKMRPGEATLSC
Outline: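 Radiometric methyltransfer by METTL1/WDR4 (6.25 nM f.c., 5 min preincubation) at ambient temperature in HEPES pH 7.5, KCl, MgCl2, DTT; started with 25 nM 3′-biotinylated RNA and 60 nM 3H-SAM, run 20 min, quenched with 15 μM cold SAM. Product captured on streptavidin flashplates (2 h, 25° C), counted by scintillation.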

PRMT5-MEP50 = PRMT5-MEP50 (Homo sapiens, UniProt O14744); experiment: PRMT5 assay (3H-SAM flashplate scintillation); assay type: biochemical; conditions: PRMT5-MEP50 2.5 nM, histone H4 peptide 100 nM, 3H-SAM 250 nM, 60 min
PRMT5-MEP50, sequence (O14744 whole entry): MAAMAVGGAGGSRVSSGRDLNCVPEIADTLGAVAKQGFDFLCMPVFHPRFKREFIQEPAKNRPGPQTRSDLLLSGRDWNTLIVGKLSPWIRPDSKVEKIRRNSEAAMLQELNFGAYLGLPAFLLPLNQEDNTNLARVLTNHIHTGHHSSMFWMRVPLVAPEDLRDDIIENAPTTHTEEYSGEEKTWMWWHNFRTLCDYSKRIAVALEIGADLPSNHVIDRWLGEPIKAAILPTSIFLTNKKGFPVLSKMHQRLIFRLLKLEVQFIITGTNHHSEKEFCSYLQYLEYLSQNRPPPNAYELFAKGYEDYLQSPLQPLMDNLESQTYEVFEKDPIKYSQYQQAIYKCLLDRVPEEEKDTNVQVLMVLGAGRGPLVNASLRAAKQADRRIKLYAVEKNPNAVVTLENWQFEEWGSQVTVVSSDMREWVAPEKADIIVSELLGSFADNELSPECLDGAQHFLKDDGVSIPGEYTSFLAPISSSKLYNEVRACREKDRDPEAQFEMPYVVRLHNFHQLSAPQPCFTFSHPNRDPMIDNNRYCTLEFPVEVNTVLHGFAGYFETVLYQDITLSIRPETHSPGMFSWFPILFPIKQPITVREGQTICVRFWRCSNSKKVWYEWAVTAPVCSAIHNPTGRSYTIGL
PRMT5-MEP50, sequence (Q9BQA1 whole entry partner): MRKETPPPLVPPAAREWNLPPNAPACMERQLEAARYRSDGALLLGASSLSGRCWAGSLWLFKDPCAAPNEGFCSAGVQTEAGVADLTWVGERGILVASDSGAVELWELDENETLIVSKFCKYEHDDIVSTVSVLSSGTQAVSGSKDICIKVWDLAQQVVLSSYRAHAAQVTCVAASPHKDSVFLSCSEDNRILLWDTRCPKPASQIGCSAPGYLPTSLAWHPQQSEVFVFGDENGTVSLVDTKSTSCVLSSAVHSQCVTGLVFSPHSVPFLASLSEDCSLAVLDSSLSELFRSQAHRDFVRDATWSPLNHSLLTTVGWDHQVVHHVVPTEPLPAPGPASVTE
Outline: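 Radiometric methyltransferase read-out: after 60 min reaction, excess unlabelled SAM (15 μM) stops turnover and biotinylated H4 peptide (100 nM) carrying 3H-methyl from 250 nM 3H-SAM is captured on streptavidin flashplates (2 h, 25° C) for scintillation counting. Enzyme, 2.5 nM PRMT5-MEP50, was preincubated 5 min with compound in pH 8.0 Tris buffer with DTT and Tween.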

METTL16 = biological target: T1, METTL16 (Homo sapiens, UniProt Q86W50); experiment: METTL16 assay (3H-SAM flashplate scintillation); assay type: biochemical; conditions: METTL16 100 nM, RNA 50 nM, 3H-SAM 200 nM, SAM 800 nM, 20 min
T1 sequence (Q86W50 1-562): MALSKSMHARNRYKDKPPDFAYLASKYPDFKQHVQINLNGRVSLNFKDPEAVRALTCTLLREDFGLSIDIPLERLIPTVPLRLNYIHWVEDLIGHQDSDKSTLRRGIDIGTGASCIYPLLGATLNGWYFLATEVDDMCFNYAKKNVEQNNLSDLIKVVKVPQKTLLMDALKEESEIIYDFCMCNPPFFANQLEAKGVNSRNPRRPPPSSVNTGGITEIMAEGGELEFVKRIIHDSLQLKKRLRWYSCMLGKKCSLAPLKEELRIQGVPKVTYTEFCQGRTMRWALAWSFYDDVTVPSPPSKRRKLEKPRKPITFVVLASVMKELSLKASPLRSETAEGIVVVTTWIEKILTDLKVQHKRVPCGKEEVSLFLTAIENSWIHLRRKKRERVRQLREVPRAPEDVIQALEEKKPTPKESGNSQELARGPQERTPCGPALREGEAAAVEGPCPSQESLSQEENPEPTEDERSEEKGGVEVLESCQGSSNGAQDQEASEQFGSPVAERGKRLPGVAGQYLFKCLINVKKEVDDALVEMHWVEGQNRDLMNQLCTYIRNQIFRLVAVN
Outline: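 Radiometric methyltransferase reaction at ambient temperature in 20 mM HEPES pH 7.5, 50 mM KCl, 1 mM DTT, with 100 nM enzyme preincubated 5 min with compound. It was started with 50 nM 3′-biotinylated RNA, 200 nM 3H-SAM plus 800 nM cold SAM, run 20 min, then quenched with excess cold SAM. Product was captured on streptavidin flashplates and scintillation-counted.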

[2] = METTL1/WDR4 6.25 nM, RNA 25 nM, 3H-SAM 60 nM, 20 min, read-out: METTL1 IC50

Compound	IC50 (MOLM-13 cells) [nM]	IC50 [1] [nM]	IC50 (METTL3/METTL14) [nM]	IC50 (METTL1/WDR4; [2]) [nM]	IC50 (PRMT5-MEP50) [nM]	IC50 (METTL16) [nM]	IC50 (METTL1/WDR4) [nM]
CCc1cc(N(C)C)c2ccc(OCc3cncc(-n4cc(-c5ccn(C)n5)c5c(N)ncnc54)c3)cc2n1 [Compound I-147]	< 1000	≥ 10000	< 10	–	–	–	–
CNc1ccc2ccc(OCc3cncc(-n4cc(Cl)c5c(N)ncnc54)n3)cc2n1 [Compound I-20]	–	1000 to 10000	< 10	> 1000	> 1000	–	–
Nc1ncnc2c1c(Cl)cn2-c1cncc(COc2ccc3ccc(NCC4CC4)nc3c2)c1 [Compound I-55]	1000 to 10000	–	100 to 1000	–	> 1000	> 1000	–
CCc1cc(N(C)CC2CC2)c2ccc(OCc3cncc(-n4cc(-c5ccn(C)n5)c5c(N)ncnc54)c3)cc2n1 [Compound I-137]	< 1000	1000 to 10000	< 10	–	–	–	–
Cn1ccc(-c2cn(-c3cncc(COc4ccc5ccc(N6CC(F)(F)C6)nc5c4)c3)c3ncnc(N)c23)n1 [Compound I-212]	1000 to 10000	–	< 10	–	> 1000	–	–
Cn1ccc(-c2cn(-c3cncc(COc4ccc5ccc(N6CC(=O)C6)nc5c4)c3)c3ncnc(N)c23)n1 [Compound I-217]	1000 to 10000	–	< 10	–	> 1000	–	–
CNc1ccc2ccc(CCc3cncc(-n4cc(C5CCCC5)c5c(N)ncnc54)n3)cc2n1 [Compound I-110]	–	1000 to 10000	< 10	> 1000	> 1000	> 1000	–
CCc1cc(N)c2ccc(OCc3cncc(-n4cc(Cl)c5c(N)ncnc54)c3)cc2n1 [Compound I-52]	–	≥ 10000	< 10	–	> 1000	> 1000	–
CCc1cc(NCCOC)c2ncc(OCc3cncc(-n4cc(-c5ccn(C)n5)c5c(N)ncnc54)c3)cc2n1 [Compound I-138]	< 1000	1000 to 10000	< 10	–	–	–	–
CC(C)c1cc(N2CCC2)c2ccc(OCc3cncc(-n4ccc5c(N)ncnc54)c3)cc2n1 [Compound I-99]	< 1000	–	< 10	> 1000	> 1000	–	–
Cn1ccc(-c2cn(-c3cncc(COc4ccc5ccc(N6CC(N)C6)nc5c4)c3)c3ncnc(N)c23)n1 [Compound I-213]	< 1000	–	< 10	–	> 1000	–	–
Cn1ccc(-c2cn(-c3cncc(COc4ccc5ccc(N6CC(O)C6)nc5c4)c3)c3ncnc(N)c23)n1 [Compound I-193]	1000 to 10000	–	< 10	–	> 1000	–	–
CC(=O)c1cn(-c2cncc(COc3ccc4ccc(N5CCC5)nc4c3)c2)c2ncnc(N)c12 [Compound I-238]	≥ 10000	–	< 10	–	> 1000	–	–
Cc1nc(-c2cn(-c3cncc(COc4ccc5ccc(N6CCC6)nc5c4)c3)c3ncnc(N)c23)co1 [Compound I-239]	1000 to 10000	–	< 10	–	> 1000	–	–
Cc1cc(N)c2ccc(OCc3cncc(-n4ccc5c(N)ncnc54)c3)cc2n1 [Compound I-48]	≥ 10000	–	100 to 1000	–	> 1000	> 1000	–
CNc1ccc2ccc(OCc3cncc(-n4cc(C5CCCO5)c5c(N)ncnc54)c3)cc2n1 (centres unmarked) [Compound I-97]	< 1000	–	< 10	–	> 1000	–	> 1000
CCc1cc(N(C)C)c2ccc(OCc3cncc(-n4ccc5c(N)ncnc54)c3)cc2n1 [Compound I-232]	< 1000	–	10 to 100	–	> 1000	–	–
Cn1ccc(-c2cn(-c3cncc(COc4ccc5ccc(N6CC(F)C6)nc5c4)c3)c3ncnc(N)c23)n1 [Compound I-192]	< 1000	–	< 10	–	> 1000	–	–
CCc1cc(N2CCN(C)CC2)c2ccc(OCc3cncc(-n4ccc5c(N)ncnc54)c3)cc2n1 [Compound I-107]	< 1000	–	< 10	–	> 1000	–	–
CN(CCO)c1ccc2ccc(OCc3cncc(-n4cc(-c5ccn(C)n5)c5c(N)ncnc54)c3)cc2n1 [Compound I-169]	< 1000	–	< 10	–	> 1000	–	–
CCc1cc(NCCOC)c2ccc(OCc3cncc(-n4cc(COC)c5c(N)ncnc54)c3)cc2n1 [Compound I-231]	< 1000	–	< 10	–	> 1000	–	–
